{
  "source": "patent US12527810B2",
  "about": "“Pharmaceutical composition, methods for treating and uses thereof” (Boehringer Ingelheim International GmbH, priority 2009, dated 2026)",
  "key": {"[1]": {"assay": "particle size distribution measurement by laser diffraction", "assay_type": "physicochemical", "details": "milled active substance", "excerpt": "The value X90 refers to the 90% value of the volume distribution measured using a laser diffractometer. In other words, for the purposes of the present invention, the X90 value denotes the particle size below which 90% of the quantity of particles is found based on the volume distribution. Analogously the value X50 refers to the 50% value (median) of the volume distribution measured using a laser diffractometer. In other words, for the purposes of the present invention, the X50 value denotes the particle size below which 50% of the quantity of particles is found based on the volume distribution. Analogously the value X10 refers to the 10% value of the volume distribution measured using a laser diffractometer. In other words, for the purposes of the present invention, the X10 value denotes the particle size below which 10% of the quantity of particles is found based on the volume distribution.\nPreferably all X90, X50, X10 values hereinbefore and hereinafter are by volume and determined by laser-diffraction method, in particular low angle laser light scattering, i.e. Fraunhofer diffraction. A preferred test is described in the experimental section. The laser diffraction method is sensitive to the volume of a particle and provides a volume-average particle size, which is equivalent to the weight-average particle size if the density is constant. The skilled artesian knows that the results of the particle size distribution determination by one technique can be correlated with that from another technique, for example on an empirical basis by routine experimentation. Alternatively the particle size distribution in the pharmaceutical composition or dosage form can be determined by microscopy, in particular electron microscopy or scanning electron microscopy.\nParticle size distribution measurement is performed for example via light scattering or laser diffraction technique. To determine the particle size the powder is fed into a laser diffraction spectrometer for example by means of a dispersing unit. The test method is described below in detail: • Equipment: Laser Diffraction Spectrometer Sympatec HELOS Particle Sizer. • Lens: R31 (0.5/0.9 μm-175 μm) • Sample Dispersing Unit: Dry disperser RODOS/M • Vacuum: Nilfisk • Feeder: ASPIROS • Feed Velocity: 60.00 mm/s • Primary pressure: 2.00 bar • Injector depression: maximize (mbar)2 • Reference Measurement: 10 seconds • Cycle Time: 100 msec • Trigger Conditions: Start 0.0 seconds after optical concentration ≥1% valid always • Stop after 5.0 seconds optical concentration ≤1% or after 30 seconds real time • Optical Concentration: Approximately range 3-12% • Evaluation: HRLD • Sample Size: Approximately 100 mg • Number of measurements: 2 (duplicate)\nThe instrument is set up according to the manufacturer's recommendation and using the manufacturer provided software. The sample container is thoroughly mixed and tumbled prior to removing a portion of the sample to ensure that a representative sample is tested. Duplicate samples are prepared by using a spatula to transfer approximately 100 mg of a sample into the ASPIROS glass vials and cap the vials. The capped cials are placed into the feeder."}, "blood glucose": {"tested_on": "blood glucose", "assay": "oral glucose tolerance test in ZDF rats", "assay_type": "in vivo, rat", "details": "oral glucose load 2 g/kg 30 min later", "description": "According to a first example an oral glucose tolerance test is performed in overnight fasted 9-weeks old male Zucker Diabetic Fatty (ZDF) rats (ZDF/Crl-Lepr^fa). A pre-dose blood sample is obtained by tail bleed. Blood glucose is measured with a glucometer, and the animals are randomized for blood glucose (n=5/group). Subsequently, the groups receive a single oral administration of either vehicle alone (0.5% aqueous hydroxyethylcellulose containing 3 mM HCl and 0.015% Polysorbat 80) or vehicle containing the SGLT2 inhibitor. The animals receive an oral glucose load (2 g/kg) 30 min after compound administration. Blood glucose is measured in tail blood 30 min, 60 min, 90 min, 120 min, and 180 min after the glucose challenge. Glucose excursion is quantified by calculating the reactive glucose AUC. The data are presented as mean±SEM. The two-sided unpaired Student t-test is used for statistical comparison of the control group and the active groups.\nCompound (I.9) (1-chloro-4-(β-D-glucopyranos-1-yl)-2-[4-((S)-tetrahydrofuran-3-yloxy)-benzyl]-benzene) was orally administered to ZDF rats at doses of 0.3 mg/kg, 3 mg/kg or 30 mg/kg body weight. Compound (I.9) reduced glucose excursion by 15% at 0.3 mg/kg (not significant), by 62% at 3 mg/kg (p<0.001) and by 89% at 30 mg/kg (p<0.001)."}, "serum uric acid": {"tested_on": "serum uric acid", "assay": "twelve week study of serum uric acid levels in patients with manifest type 2 diabetes mellitus", "assay_type": "in vivo, human", "details": "type 2 diabetes patients; for serum uric acid level, 12 weeks: after 12 weeks", "description": "In a twelve week study of patients with manifest type 2 diabetes mellitus serum uric acid levels were measured at baseline and every 4 weeks in patients randomized to an administration of the compound (I.9) of 5 mg, 10 mg, or 25 mg or placebo or metformin 2000 mg, daily for 12 weeks."}, "[2]": {"assay": "body weight in cafeteria-diet obese female Wistar rats", "assay_type": "in vivo, rat", "details": "28 days", "description": "All experimental procedures concerning the use of laboratory animals were carried out under a Home Office Certificate of Designation. An animal model of obesity was used to study the effect of the compound (I.9) on body weight and total body fat content. For this, female Wistar rats were made obese by exposure to a simplified cafeteria diet containing high fat chow, chocolate and ground peanuts for approximately 24 weeks. Following the induction of obesity, rats were given vehicle (0.5% aqueous hydroxyethyl-cellulose) for 7 days and then dosed orally once daily with either vehicle or 3 mg/kg or 10 mg/kg compound (I.9) for 28 days. For the duration of the study rats were maintained on the cafeteria diet. Therein “Cpd A” denotes the glucopyranosyl-substituted benzene derivative (I.9) at a dose of 3 mg/kg or 10 mg/kg. Results are means (adjusted for differences between the body weights of the different treatment groups at baseline (Day 1))±SEM (calculated from the residuals of the statistical model), n=10. After 28 day daily oral treatment with the compound (I.9) a reduced body weight compared to the vehicle-treated control group was observed. Body weight data was analysed by analysis of covariance with body weights on Day 1 as covariate. […]"}, "[3]": {"assay": "total body fat content (FoodScan NIR) in cafeteria-diet obese female Wistar rats", "assay_type": "in vivo, rat", "details": "10 mg/kg orally once daily, end of study Day 34, p<0.05", "description": "All experimental procedures concerning the use of laboratory animals were carried out under a Home Office Certificate of Designation. An animal model of obesity was used to study the effect of the compound (I.9) on body weight and total body fat content. For this, female Wistar rats were made obese by exposure to a simplified cafeteria diet containing high fat chow, chocolate and ground peanuts for approximately 24 weeks. Following the induction of obesity, rats were given vehicle (0.5% aqueous hydroxyethyl-cellulose) for 7 days and then dosed orally once daily with either vehicle or 3 mg/kg or 10 mg/kg compound (I.9) for 28 days. […] Results are means (adjusted for differences between the body weights of the different treatment groups at baseline (Day 1))±SEM (calculated from the residuals of the statistical model), n=10. […] Body weight data was analysed by analysis of covariance with body weights on Day 1 as covariate. […]\nAt the end of the study on Day 34 (24 hours after the last treatment on Day 33) all rats were terminated, the body exsanguinated and the following tissues removed: the caudate liver lobe, the pancreas, the left kidney and one soleus muscle. Body composition (body fat, protein and water) was determined using the FoodScan NIR (near infra-red) meat analyser (Foss UK). […] Standard errors of the mean (SEM) are calculated from the residuals of the statistical model. […]"}, "HbA1c": {"tested_on": "HbA1c", "details": "metformin on its own, in the diabetic; cited from earlier work"}},
  "data": [
    {"compound": "OC[C@H]1O[C@@H](c2ccc(Cl)c(Cc3ccc(O[C@H]4CCOC4)cc3)c2)[C@H](O)[C@@H](O)[C@@H]1O", "note": "[Active substance Batch 1]", "values": [
      {"measurement": "X10 (particle size, volume distribution)", "setting": "[1]", "value": 1.8, "unit": "μm"},
      {"measurement": "X50 (particle size, volume distribution)", "setting": "[1]", "value": 18.9, "unit": "μm"},
      {"measurement": "X90 (particle size, volume distribution)", "setting": "[1]", "value": 45.3, "unit": "μm"}
    ]},
    {"compound": "OC[C@H]1O[C@@H](c2ccc(Cl)c(Cc3ccc(O[C@H]4CCOC4)cc3)c2)[C@H](O)[C@@H](O)[C@@H]1O", "note": "[Active substance Batch 2]", "values": [
      {"measurement": "X10 (particle size, volume distribution)", "setting": "[1]", "value": 1.7, "unit": "μm"},
      {"measurement": "X50 (particle size, volume distribution)", "setting": "[1]", "value": 12.1, "unit": "μm"},
      {"measurement": "X90 (particle size, volume distribution)", "setting": "[1]", "value": 25.9, "unit": "μm"}
    ]},
    {"compound": "OC[C@H]1O[C@@H](c2ccc(Cl)c(Cc3ccc(O[C@H]4CCOC4)cc3)c2)[C@H](O)[C@@H](O)[C@@H]1O", "note": "[Compound (I.9), 1-chloro-4-(β-D-glucopyranos-1-yl)-2-[4-((S)-tetrahydrofuran-3-yloxy)-benzyl]-benzene]", "values": [
      {"measurement": "reduction of glucose excursion (reactive glucose AUC)", "setting": "blood glucose; single oral dose 0.3 mg/kg, not significant", "value": 15, "unit": "%"},
      {"measurement": "reduction of glucose excursion (reactive glucose AUC)", "setting": "blood glucose; single oral dose 3 mg/kg, p<0.001", "value": 62, "unit": "%"},
      {"measurement": "reduction of glucose excursion (reactive glucose AUC)", "setting": "blood glucose; single oral dose 30 mg/kg, p<0.001", "value": 89, "unit": "%"},
      {"measurement": "serum uric acid level, baseline", "setting": "serum uric acid; 5 mg daily group", "value": 5.5, "unit": "mg/dL"},
      {"measurement": "serum uric acid level, 12 weeks", "setting": "serum uric acid; 5 mg daily", "value": 5.0, "unit": "mg/dL"},
      {"measurement": "serum uric acid level, baseline", "setting": "serum uric acid; 10 mg daily group", "value": 5.3, "unit": "mg/dL"},
      {"measurement": "serum uric acid level, 12 weeks", "setting": "serum uric acid; 10 mg daily", "value": 4.7, "unit": "mg/dL"},
      {"measurement": "serum uric acid level, baseline", "setting": "serum uric acid; 25 mg daily group", "value": 5.4, "unit": "mg/dL"},
      {"measurement": "serum uric acid level, 12 weeks", "setting": "serum uric acid; 25 mg daily", "value": 4.7, "unit": "mg/dL"},
      {"measurement": "reduction in serum uric acid levels compared to baseline", "setting": "serum uric acid; all doses (5 mg, 10 mg, 25 mg daily), 12 weeks", "value": "0.5 to 0.7", "unit": "mg/dL"},
      {"measurement": "reduction of body weight versus vehicle control", "setting": "[2]; 3 mg/kg orally once daily", "value": 4.1, "unit": "%"},
      {"measurement": "reduction of body weight versus vehicle control", "setting": "[2]; 10 mg/kg orally once daily, significant (p<0.05)", "value": 6.9, "unit": "%"},
      {"measurement": "total body fat content (weight per rat) in comparison to vehicle-treated animals", "setting": "[3]", "value": "significantly lower"}
    ]},
    {"compound": "CN(C)C(=N)N=C(N)N", "note": "[Metformin, reference compound]", "values": [
      {"measurement": "serum uric acid level, baseline", "setting": "serum uric acid; 2000 mg daily group", "value": 5.6, "unit": "mg/dL"},
      {"measurement": "change of serum uric acid levels compared to baseline", "setting": "serum uric acid; 2000 mg daily, 12 weeks", "value": "increased"},
      {"measurement": "serum uric acid level, 12 weeks", "setting": "serum uric acid; 2000 mg daily", "value": 6.2, "unit": "mg/dL"},
      {"measurement": "average improvement in the HbA1c value", "setting": "HbA1c", "value": "1.0-1.5%"}
    ]}
  ]
}
